Measurements from patent publication US11235033B1, “Materials and methods for the treatment of vascular calcification” (THE FLORIDA INTERNATIONAL UNIVERSITY BOARD OF TRUSTEES, priority 2020, dated 2022).
“Also recorded” adds a separate entry of the source. Read-outs that look alike come from different tables or passages of the source. One block for each compound: values may come before it.

Tests used:
[1] = system: tissue non-specific alkaline phosphatase (TNAP); experiment: TNAP activity in EVs released by SMCs; assay type: cell-based, human; conditions: AG 1478 2.5 μM, FIG. 8B
From the text: To obtain EVs from the mouse aortae, following collagenase digestion and tissue homogenization using a Dounce homogenizer, cells and large extracellular aggregates are removed by centrifugation steps of 1,000×g and 10,000×g, respectively. EVs are isolated from the remaining supernatant by ultracentrifugation at 100,000×g. Western blotting analyses of commonly enriched EV markers determine the efficacy of the isolation procedures. The presence of caveolin-1 and activity of the pro-calcific enzyme TNAP are also assessed in the extracted EVs.
(§1) EVs from the in vitro samples are isolated using previously established procedures, which includes 1,000×g and 10,000×g centrifugations to remove cells and large contaminants and a 100,000×g ultracentrifugation to obtain EVs suspended in conditioned media.

caveolin-1 [2] = experiment: Western blotting of caveolin-1 in SMCs and in EVs under pro-calcific conditions; assay type: cell-based, human; conditions: AG 1478 2.5 μM; for EV caveolin-1: EVs under pro-calcific conditions, FIG. 8D; for intracellular caveolin-1: SMCs, FIG. 8C
From the text: as §1
(§2) To determine changes in caveolin-1 associated with the culture conditions and treatments, western blotting and immunofluorescence are used to assay caveolin-1 phosphorylation on tyrosine 14. This site is associated with changes in EGFR activity and caveolae internalization. Immunofluorescence is then used to assess the localization of caveolin-1 within the SMCs for the different culture conditions at these time points. Western blotting is used to quantify caveolin-1 in EVs relative to SMC lysates.

dynamin = conditions: cited from earlier work
caveolin-1 [3] = experiment: Immunofluorescence of caveolin-1 localization in SMCs in pro-calcific media; assay type: cell-based, human; conditions: 1 μM AG1478, SMCs in pro-calcific media; FIG. 13
From the text: (§3) The vasodilatory effects of RXFP1 agonism occurs through interactions within caveolae on endothelial cells. G-protein-coupled receptors (GPCRs), such as RXFP1, use caveolae scaffolding domains to regulate interactions with other proteins and activate downstream signaling. […] RXFP1 agonism may stabilize existing caveolae, leading to the observed decreased caveolin-1 turnover. RXFP1 agonist-induced stabilization of caveolae may prevent the formation of calcifying EVs.
as §2

[4] = system: primary human coronary artery smooth muscle cells; experiment: Calcific mineral formation by SMCs cultured in pro-calcific (osteogenic) media in vitro; assay type: cell-based; conditions: for SMC mineralization in vitro: AG 1478 2.5 μM, FIG. 8A
Method: Pro-calcific media, optimized to induce calcification, consists of growth media supplemented with 10 nM dexamethasone, 100 μM L-ascorbic acid, and 10 mM β-glycerolphosphate. All in vitro experiments proceed for 14 days, when release of calcifying EVs from human coronary artery SMCs in pro-calcific media peaks.
[…] Changes in SMC phenotype are assayed in the culture conditions and in response to the small molecule treatments by measuring expression of osteogenic and SMC relevant genes at the time points considered. In vitro mineralization is assessed using alizarin red S staining, extraction, and colorimetric analyses after 21 days in culture.

CKD mice = experiment: Aortic calcification in CKD mice fed a high phosphate diet; assay type: in vivo, mouse; conditions: for calcification in treated CKD mice: CKD diet regimen, AG1478 20 mg/kg or ML290 30 mg/kg oral gavage every 2 days
Method: Eight-week old SMMHC-CreER^T2+/Cav1^fl/fl mice receive daily intraperitoneal injections of either peanut oil (vehicle control) or tamoxifen (1 mg/kg) for two weeks. Following the final injection, mice receive an adenine-enriched (0.2%) diet for 6 weeks to induce kidney dysfunction. Elevated phosphate (1.8%) is then added to the diet to induce medial calcification. Using a sensitive near-infrared calcium mineral tracer (OsteoSense 680), significant aortic calcification in mice was observed after 2 weeks of the high phosphate diet (FIG. 1). Vascular calcification continues to increase for up to 6 weeks of the high phosphate diet.
To test the therapeutic efficacy of these small molecules, e.g., ML290 or AG1478, the same CKD diet regimen is used as discussed above. A mouse model designed to test agonists for human RXFP1 is utilized.
Beginning at prescribed time points (FIG. 11), mice are treated with the EGFR inhibitor, AG1478 (20 mg/kg), or ML290 (30 mg/kg) via oral gavage every 2 days. Control mice receive vehicle gavage. The treatments begin either at the initiation of the high phosphate diet (to determine if the treatments prevent mineral formation) or after two weeks of the high phosphate diet (to determine if the treatments can reverse medial calcification).

rodent receptor = target: T1, rodent receptor (Mus musculus, UniProt Q6R6I7); conditions: cited from earlier work
T1 sequence (Q6R6I7 1-758): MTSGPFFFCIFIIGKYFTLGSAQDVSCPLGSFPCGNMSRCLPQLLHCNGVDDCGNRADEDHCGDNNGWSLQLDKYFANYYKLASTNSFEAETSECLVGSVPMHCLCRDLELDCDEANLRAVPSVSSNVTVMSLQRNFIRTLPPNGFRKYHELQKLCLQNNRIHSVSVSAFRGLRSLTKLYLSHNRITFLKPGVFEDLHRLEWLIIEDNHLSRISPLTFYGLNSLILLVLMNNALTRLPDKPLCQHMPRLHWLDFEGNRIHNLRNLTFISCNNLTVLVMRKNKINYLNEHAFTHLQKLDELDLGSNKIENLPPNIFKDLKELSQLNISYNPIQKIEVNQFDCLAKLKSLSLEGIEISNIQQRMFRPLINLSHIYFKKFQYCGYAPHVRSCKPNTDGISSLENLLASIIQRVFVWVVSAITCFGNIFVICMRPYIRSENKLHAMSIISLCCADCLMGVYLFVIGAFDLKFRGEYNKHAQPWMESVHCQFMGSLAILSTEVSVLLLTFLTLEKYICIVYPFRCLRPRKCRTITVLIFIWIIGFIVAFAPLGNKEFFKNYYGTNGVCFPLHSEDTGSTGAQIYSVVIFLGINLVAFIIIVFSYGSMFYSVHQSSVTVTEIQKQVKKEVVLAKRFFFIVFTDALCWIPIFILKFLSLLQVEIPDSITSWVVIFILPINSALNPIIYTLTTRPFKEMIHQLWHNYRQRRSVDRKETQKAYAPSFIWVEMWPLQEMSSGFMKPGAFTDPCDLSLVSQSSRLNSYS

atherogenic Apoe−/− mice = experiment: Calcification (OsteoSense fluorescence) in atherogenic Apoe-/- mice; assay type: in vivo, mouse; conditions: oral gavage 30 mg/kg; for OsteoSense fluorescence (mineral) vs vehicle treated controls: after 25 weeks of atherogenic diet
From the text: A chow control is shown for comparison (first aorta). C) Quantification of mice treated with ML290 at the initiation of the atherogenic diet. […] D) Quantification of OsteoSense signal in mice treated at 15 weeks of atherogenic diet, indicating potential of treatment to reverse existing remodeling. #p<0.0001.
Relaxin Family Peptide Receptor 1 (RXFP1) agonism induces vasodilation through a mechanism that may involve interactions with endothelial nitric oxide synthase within caveolae. The relaxin peptide, activating RXFP1, has therapeutic potential in treating fibrosis and vasculopathies.

PPARGC1A = PPARGC1A gene expression in SMCs cultured in pro-calcific media; assay type: cell-based, human; conditions: FIG. 15
From the text: The modulation of a different GPCR, the serotonin 2B receptor, alters intracellular trafficking to prevent calcification by aortic valve cells. Both 5-HT2B and RXFP1 can modulate vascular tone through interactions with nitric oxide synthase—a known caveolin-1 interactor. RXFP1 may, however, affect caveolin-1 protein stability directly. Peroxisome Proliferator-Activated Receptor γ (PPARγ) activation promotes lysosomal degradation of caveolin-1 in pulmonary artery SMCs. […] Therefore, thus result indicates the potential mechanism for the observed anti-calcific effects of ML290.

[5] = Adverse events in 25-week atherosclerotic mouse study; assay type: in vivo; conditions: mice, oral gavage, preliminary 25-week atherosclerotic study
RXFP1 [6] = target: T2, RXFP1 (Homo sapiens, UniProt Q9HBX9); conditions: cited from earlier work
T2 sequence (Q9HBX9 1-757): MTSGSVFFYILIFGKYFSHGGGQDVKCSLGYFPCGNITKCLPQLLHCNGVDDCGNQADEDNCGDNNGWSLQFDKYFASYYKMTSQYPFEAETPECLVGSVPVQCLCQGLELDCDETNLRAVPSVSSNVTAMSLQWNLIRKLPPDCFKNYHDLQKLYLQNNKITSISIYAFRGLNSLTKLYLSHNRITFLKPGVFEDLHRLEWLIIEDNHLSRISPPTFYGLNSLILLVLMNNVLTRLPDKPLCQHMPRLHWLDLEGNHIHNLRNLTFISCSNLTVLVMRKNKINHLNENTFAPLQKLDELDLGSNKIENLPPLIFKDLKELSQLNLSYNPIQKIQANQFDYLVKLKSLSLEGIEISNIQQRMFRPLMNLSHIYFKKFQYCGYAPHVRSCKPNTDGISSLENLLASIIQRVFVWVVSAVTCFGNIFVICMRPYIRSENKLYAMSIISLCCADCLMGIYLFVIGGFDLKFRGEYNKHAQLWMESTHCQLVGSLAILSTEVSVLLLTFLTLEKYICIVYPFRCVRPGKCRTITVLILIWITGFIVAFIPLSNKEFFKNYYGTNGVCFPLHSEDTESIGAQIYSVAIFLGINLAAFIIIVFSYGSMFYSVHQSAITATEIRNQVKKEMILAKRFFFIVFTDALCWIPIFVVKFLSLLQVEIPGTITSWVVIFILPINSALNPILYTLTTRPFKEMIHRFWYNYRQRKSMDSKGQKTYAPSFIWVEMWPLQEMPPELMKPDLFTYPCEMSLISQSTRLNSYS

THP1 cells = conditions: cited from earlier work
caveolin-1 [7] = experiment: Caveolin-1 gene expression in pro-calcific SMC culture; assay type: cell-based, human; conditions: SMCs, pro-calcific conditions, 24 h; FIG. 14
From the text: as §3

RXFP1 [8] = target: T2, RXFP1; conditions: cited from earlier work; remark: listed apart in the source
[9] = Pharmacokinetics study of ML290 via oral administration in hRXFP1/hRXFP1 mice; assay type: in vivo; conditions: mouse, 30 mg/kg oral
hypertensive rats = conditions: chronic treatment; cited from earlier work
[10] = in vivo; cited from earlier work

EV TNAP activity [1]: reduces activity
EV TNAP activity ([1]; listed as AG 1478): reduces EV TNAP activity
Compound: COc1cc2ncnc(Nc3cccc(Cl)c3)c2cc1OC [AG1478]
EV caveolin-1 (caveolin-1 [2]): reduces caveolin-1 released in EVs; also recorded: decreases EV caveolin-1
EV caveolin-1 (caveolin-1 [2]; listed as AG 1478): reduces EV caveolin-1
intracellular caveolin-1 (caveolin-1 [2]): does not change intracellular caveolin-1; also recorded: without affecting intracellular caveolin-1 levels
intracellular caveolin-1 (caveolin-1 [2]; listed as AG 1478): does not affect intracellular caveolin-1
dynamin activity (dynamin): reduces dynamin activity
caveolin-1 plasma membrane (peripheral) localization (caveolin-1 [3]): maintained the peripheral localization of caveolin-1; also recorded: preserves caveolin-1 (red) plasma membrane localization
SMC mineralization in vitro [4]: prevents calcific mineral formation
SMC mineralization in vitro ([4]; listed as AG 1478): prevents SMC mineralization
calcification in treated CKD mice (CKD mice): Diminished calcification

Compound: CC(C)Oc1ccccc1C(=O)Nc1ccccc1C(=O)Nc1cccc(S(=O)(=O)C(F)(F)F)c1 [ML290]
activation of rodent receptor (rodent receptor): does not activate rodent receptor
calcification in vivo (atherogenic Apoe−/− mice; Apoe−/− mice, FIG. 9B, 30 mg/kg): mitigates calcification; also recorded: reduces calcification in vivo
OsteoSense fluorescence (mineral) vs vehicle treated controls (atherogenic Apoe−/− mice; treated after 15 weeks of atherogenic diet): Lower OsteoSense fluorescence
OsteoSense fluorescence (mineral) vs vehicle treated controls (atherogenic Apoe−/− mice; treated at the beginning of the atherogenic diet): Lower OsteoSense fluorescence
mineral formation by vascular smooth muscle cells in vitro ([4]; ML290 5 μM, FIG. 9A): significantly reduces mineral formation
anti-calcification effect on human SMCs in vitro ([4]; primary human coronary artery smooth muscle cells cultured in osteogenic stimuli): mitigates calcification; also recorded: profound anti-calcification effects
PPARGC1A gene expression (PPARGC1A): increases PPARGC1A; also recorded: increased expression of PPARGC1A
adverse events [5]: No adverse events
agonism of human RXFP1 (RXFP1 [6]): potent and efficacious non-peptide agonist; also recorded: specific agonist for human RXFP1
VEGF gene expression (THP1 cells): increase
cAMP levels (THP1 cells): increase
caveolin-1 gene expression (caveolin-1 [7]): decreases caveolin-1 gene expression; also recorded: reduces caveolin-1 expression
selectivity towards RXFP1 over RXFP2 receptors (RXFP1 [8]): > 100 fold
calcification in treated CKD mice (CKD mice): Diminished calcification
aortic calcification (CKD mice; CKD mice, 30 mg/kg oral gavage from initiation of high phosphate diet, 2 weeks, FIG. 12, 30 mg/kg): significant prevented aortic calcification; also recorded: significantly prevents aortic calcification
half-life ([9]; aorta, read-out: t½ in aorta (converted)): 8 h
half-life ([9]; serum, read-out: t½ in serum (converted)): 11 h

Compound: relaxin
arterial compliance (hypertensive rats): improved arterial compliance
safety and tolerability [10]: safe and well-tolerated
